Experimental data taken from patent US12022844B2, “Nutritional composition, food/drink composition using nutritional composition, and modified milk powder using nutritional composition” (priority 2018, dated 2024).

Tests used:
[1] = tested on: Lactobacillus plantarum ATCC14917; experiment: Mix-culturing with Bifidobacterium bifidum by HMO as sugar source, quantitative PCR; type: cell-based; conditions: ATCC 14917^T mix-cultured with Bifidobacterium bifidum (NITE BP-02429), sugar source 2%, Table 8
Experimental: (§1) A10% solution of glucose (manufactured by Nakarai Tesque Inc.), and 2′-FL ((≥95%) Funakoshi, available from sigma), and LNnT (manufactured by ELICITYL) as examples of HMOs was prepared with ion exchanged water, and was subjected to sterile filtration using Millex-GV (SLGV033RS).
(§2) Lactobacilli MRS Broth (BD) (0.05% L-Cysteine Hydrochloride for Bacteria of the genus Bifidobacterium) was added to strains of Table 1 below (bacteria belonging to Bifidobacterium bifidum) and Table 2 below. After a sterilization treatment, 3% of the bacterial solution was inoculated, and anaerobically cultured (pre-pre cultured) at 37° C. for 16 h.
(§3) The following day, 1% glucose was added to a modified BL agar medium (“Studies on Bifidobacteria” by Tomotari Mitsuoka, p. 306, Japan Bifidus Foundation, issued in 1994) noted in Table 3, for preparation. After a sterilization treatment, 3% of the pre-pre cultured bacterial solution was inoculated, and anaerobically pre-cultured (pre-cultured) at 37° C. for 12 h.
(§4) The pre-cultured bacterial solution was collected and washed once with a sterile physiological saline solution. Then, mass-up was performed to an equal volume with the modified BL agar medium (“Studies on Bifidobacteria” by Tomotari Mitsuoka, p. 306, Japan Bifidus Foundation, issued in 1994) noted in Table 3 to prepare a suspended bacterial solution.
(§5) The modified BL agar medium (“Studies on Bifidobacteria” by Tomotari Mitsuoka, p. 306, Japan Bifidus Foundation, issued in 1994) noted in Table 3 was prepared at a capacity of 60%, and was subjected to an autoclave sterilization treatment. Then, 40% of each sugar solution prepared in (1) was aseptically added so as to prepare a medium with a sugar concentration of 4%.
(§6) The medium prepared in the above (3) was dispensed at a capacity that is half the capacity for aseptic culturing in a 96-well plate, and each of the bacterial solutions of strains of bacteria belonging to Bifidobacterium bifidum in Table 1 and probiotics having a low ability to assimilate human milk oligosaccharides in Table 2, which was prepared in the above (2), was dispensed at a remaining […] capacity into the medium prepared in the above (3) such that the bacterial solution had 12%. Then, a final sugar concentration was set to 2%. The plate into which the bacterial solution was dispensed was anaerobically cultured at 37° C. for 8 h.
(§7) OD650 was measured from each well in the plates in the above (4) and the above (5) before (0 h) culturing and after (8 h) culturing, by MICROPLATE READER SH-9000 (manufactured by CORONA ELECTRIC). After turbidity measurement, microbial cells were collected, and DNA extraction was performed. After the DNA extraction, the number of proliferating bacteria of Bifidobacteria/lactobacilli was analyzed by using the bacterial species-specific primer noted in Table 4, by a quantitative PCR method (see “Structural analysis of intestinal flora”—analysis of bacterial flora in human feces using quantitative PCR—by Kouichi Watanabe, Enterobacteriological journal, 20:35-42, 2006).
(§8) It was decided to culture Bifidobacterium bifidum (NITE BP-02429) in which availability of 2′-FL or LNnT was found as described above, in combination with strains in Table 2, which cannot use 2′-FL or LNnT. Bifidobacterium bifidum (NITE BP-02429) and the strains in Table 2, which cannot use 2′-FL or LNnT, were mix-cultured by 2′-FL or LNnT as a sugar source, and after culturing for 8 h, the proliferation rate of the number of bacteria of each strain (proliferation rate=the number of bacteria after mix-culturing for 8 h/the number of bacteria after single bacterial culturing) was measured by a quantitative PCR method using each strain-specific oligonucleotide primer noted in Table 4, for the strain in Table 2.

[2] = tested on: Bifidobacterium adolescentis ATCC15703; experiment: as above; type: cell-based; conditions: ATCC 15703^7 mix-cultured with Bifidobacterium bifidum (NITE BP-02429), sugar source 2%, Table 8
Experimental: as §1, §2, §3, §4, §5, §6, §7, §8

[3] = tested on: Lactobacillus rhamnosus ATCC7469; experiment: as above; type: cell-based; conditions: ATCC 7469^T mix-cultured with Bifidobacterium bifidum (NITE BP-02429), sugar source 2%, Table 8
Experimental: as §1, §2, §3, §4, §5, §6, §7, §8

[4] = tested on: Bifidobacterium pseudolongum ATCC25526; experiment: as above; type: cell-based; conditions: ATCC 25526^T mix-cultured with Bifidobacterium bifidum (NITE BP-02429), sugar source 2%, Table 8
Experimental: as §1, §2, §3, §4, §5, §6, §7, §8

[5] = tested on: Lactobacillus acidophhilus ATCC4356; experiment: as above; type: cell-based, Lactobacillus acidophilus; conditions: ATCC 4356^T mix-cultured with Bifidobacterium bifidum (NITE BP-02429), sugar source 2%, Table 8
Experimental: as §1
as §2, with “h. […]” for “h.”
(§9) OD650 was measured from each well in the plates in the above (4) and the above (5) before (0 h) culturing and after (8 h) culturing, by MICROPLATE READER SH-9000 (manufactured by CORONA ELECTRIC). […] After the DNA extraction, the number of proliferating bacteria of Bifidobacteria/lactobacilli was analyzed by using the bacterial species-specific primer noted in Table 4, by a quantitative PCR method (see “Structural analysis of intestinal flora”—analysis of bacterial flora in human feces using quantitative PCR—by Kouichi Watanabe, Enterobacteriological journal, 20:35-42, 2006). […]

[6] = tested on: Lactobacillus paracasei ATCC 25302; experiment: as above; type: cell-based; conditions: for Proliferation rate (number of bacteria after mix-culturing for 8 h/number of bacteria after single bacterial culturing): ATCC 25302^7 mix-cultured with Bifidobacterium bifidum (NITE BP-02429), sugar source 2%, Table 8; for Proliferation ratio of Lactobacillus paracasei ATCC 25302^T (mix-cultured bacteria after 8 h/single bacterial culturing 8 h): Table 12; for number of proliferating bacteria of Lactobacillus paracasei ATCC 25302^T in combination with seven strains of Bifidobacterium bifidum compared to single bacterium culture: summary of Table 12
Experimental: as §1, §2, §3, §4, §5, §6, §7, §8
Seven strains of Bifidobacterium bifidum in Table 1 and Lactobacillus paracasei ATCC 25302^T which cannot use 2′-FL or LNnT were mix-cultured by 2′-FL or LNnT as a sugar source. […]

[7] = tested on: Bifidobacterium peseudocatenulatum ATCC27919; experiment: as above; type: cell-based, Bifidobacterium pseudocatenulatum; conditions: ATCC 27919^T mix-cultured with Bifidobacterium bifidum (NITE BP-02429), sugar source 2%, Table 8
Experimental: as §1
as §2, with “h. […]” for “h.”
as §9

[8] = tested on: Bifidobacterium bifidum NITE BP-02429; experiment: Single bacterial culturing with HMO as sugar source, OD650; type: cell-based; conditions: 8 h
Experimental: as §1, §2, §3, §4
The modified BL agar medium (“Studies on Bifidobacteria” by Tomotari Mitsuoka, p. 306, Japan Bifidus Foundation, issued in 1994) noted in Table 3 was prepared at a capacity of 60%, and was subjected to an autoclave sterilization treatment. Then, 40% of each sugar solution prepared in (1) was aseptically added so as to prepare a medium with a sugar concentration of 4%. […]
OD650 was measured from each well in the plates in the above (4) and the above (5) before (0 h) culturing and after (8 h) culturing, by MICROPLATE READER SH-9000 (manufactured by CORONA ELECTRIC). […] After the DNA extraction, the number of proliferating bacteria of Bifidobacteria/lactobacilli was analyzed by using the bacterial species-specific primer noted in Table 4, by a quantitative PCR method (see “Structural analysis of intestinal flora”—analysis of bacterial flora in human feces using quantitative PCR—by Kouichi Watanabe, Enterobacteriological journal, 20:35-42, 2006).
Regarding bacteria belonging to Bifidobacterium bifidum in Table 1, each strain was cultured as a single bacterium by 2′-FL or LNnT (HMOs) as a sugar source, and OD650 was measured. […]
Regarding strains in Table 2, each strain was cultured as a single bacterium by 2′-FL or LNnT (HMOs) as a sugar source, and OD650 was measured. […]

[9] = tested on: Lactobacillus paracasei ATCC25302; experiment: as above; type: cell-based; conditions: ATCC 25302^T, sugar source 2%, 8 h
Experimental: as §1, §2, §3, §4, §5
The medium prepared in the above (3) was dispensed at a capacity that is half the capacity for culturing in a 96-well plate, and the bacterial solution prepared in the above (2) was dispensed at a remaining half capacity such that the bacterial solution had 6%. Then, a final sugar concentration was set to 2%. The plate into which the bacterial solution was dispensed was anaerobically cultured at 37° C. for 8 h.
as §7
Regarding strains in Table 2, each strain was cultured as a single bacterium by 2′-FL or LNnT (HMOs) as a sugar source, and OD650 was measured. The results for 2′-FL are noted in Table 6 below, and the results for LNnT are noted in Table 7 below.

[10] = mix-cultured with Bifidobacterium bifidum ATCC 29521^T
[11] = mix-cultured with Bifidobacterium bifidum NITE BP-1252
[12] = mix-cultured with Bifidobacterium bifidum NITE BP-02429
[13] = mix-cultured with Bifidobacterium bifidum NITE BP-02431
[14] = mix-cultured with Bifidobacterium bifidum NITE BP-02432
[15] = mix-cultured with Bifidobacterium bifidum NITE BP-02433
[16] = mix-cultured with Bifidobacterium bifidum NITE P-02648
[17] = NITE BP-02429, sugar source 2%, anaerobic 37° C., Table 5

Compound | Proliferation rate (number of bacteria after mix-culturing for 8 h/number of bacteria after single bacterial culturing) [1] | Proliferation rate (number of bacteria after mix-culturing for 8 h/number of bacteria after single bacterial culturing) [2] | Proliferation rate (number of bacteria after mix-culturing for 8 h/number of bacteria after single bacterial culturing) [3] | Proliferation rate (number of bacteria after mix-culturing for 8 h/number of bacteria after single bacterial culturing) [4] | Proliferation rate (number of bacteria after mix-culturing for 8 h/number of bacteria after single bacterial culturing) [5] | Proliferation rate (number of bacteria after mix-culturing for 8 h/number of bacteria after single bacterial culturing) [6] | Proliferation ratio of Lactobacillus paracasei ATCC 25302^T (mix-cultured bacteria after 8 h/single bacterial culturing 8 h) [6, 10] | Proliferation ratio of Lactobacillus paracasei ATCC 25302^T (mix-cultured bacteria after 8 h/single bacterial culturing 8 h) [6, 11] | Proliferation ratio of Lactobacillus paracasei ATCC 25302^T (mix-cultured bacteria after 8 h/single bacterial culturing 8 h) [6, 12] | Proliferation ratio of Lactobacillus paracasei ATCC 25302^T (mix-cultured bacteria after 8 h/single bacterial culturing 8 h) [6, 13] | Proliferation ratio of Lactobacillus paracasei ATCC 25302^T (mix-cultured bacteria after 8 h/single bacterial culturing 8 h) [6, 14] | Proliferation ratio of Lactobacillus paracasei ATCC 25302^T (mix-cultured bacteria after 8 h/single bacterial culturing 8 h) [6, 15] | Proliferation ratio of Lactobacillus paracasei ATCC 25302^T (mix-cultured bacteria after 8 h/single bacterial culturing 8 h) [6, 16] | number of proliferating bacteria of Lactobacillus paracasei ATCC 25302^T in combination with seven strains of Bifidobacterium bifidum compared to single bacterium culture [6] | Proliferation rate (number of bacteria after mix-culturing for 8 h/number of bacteria after single bacterial culturing) [7] | OD650 increase value ([8]; NITE BP-02429(PC), sugar source 2%, Table 6) | OD650 increase value [8, 17] | OD650 increase value ([9]; Table 6) | OD650 increase value ([8]; NITE BP-02429 (PC: positive control), sugar source 2%, Table 7) | OD650 increase value ([9]; Table 7)
2′-fucosyllactose [2′-FL] | 1.76 | 1.91 | 2.69 | 1.24 | 3.54 | 6.92 | 2.28 | 1.98 | 4.21 | 3.25 | 2.01 | 3.23 | 4.23 | promoted | 3.08 | 0.135 | 0.167 | −0.011 | – | –
CC(=O)N[C@H]1[C@H](O[C@H]2[C@@H](O)[C@@H](CO)O[C@@H](O[C@H]3[C@H](O)[C@@H](O)C(O)O[C@@H]3CO)[C@@H]2O)O[C@H](CO)[C@@H](O[C@@H]2O[C@H](CO)[C@H](O)[C@H](O)[C@H]2O)[C@@H]1O (mixture of isomers) [LNnT, lacto-N-neotetraose] | 2.58 | 1.53 | 5.03 | 0.98 | 3.77 | 4.23 | 4.26 | 9.18 | 8.04 | 10.10 | 8.76 | 8.85 | 14.78 | promoted | 1.55 | – | 0.608 | – | 0.608 | 0.052
